Source: publication PMC6344527, “Toxicity and possible mechanisms of action of honokiol from Magnolia denudata seeds against four mosquito species” (Scientific Reports, 2019)
Converted amounts (≈) assume the structure as drawn. Like-named read-outs stand apart in the source and are kept apart here.

Columns and labels:
[1] = tested on: third-instar larvae of insecticide-susceptible Aedes aegypti; test: contact mortality bioassay, 24 h exposure; format: in vivo; conditions: for LC50: Aedes aegypti, 24 h, read-out: LC50 (mg/L) (95% CI)
Experimental: (§1) A contact mortality bioassay[25] was used to evaluate the toxicity of all compounds against third-instar larvae of the four mosquito species. Each test compound in methanol was suspended in DW with Triton X-100 (20 µL/L). Groups of 20 mosquito larvae were separately placed into paper cups (270 mL) containing each compound solution (250 mL). […] Negative controls consisted of a methanol–Triton X-100 solution in DW.
(§2) Treated and control (methanol–Triton X-100 solution only) larvae were maintained under the same conditions as those used for colony maintenance without providing food. Larval mortalities were determined 24 h post-treatment. […] All treatments were performed three times using 20 larvae per replicate.
(§3) The concentration of the test compounds required to produce 50% AChE inhibitory activity (IC50) was determined using the SAS 9.13 program (Cary: SAS Institute; 2014). Concentration-mortality data were subjected to probit analysis using the SAS 9.13 program. […] Statistical analyses were performed using the SAS 9.13 program. Multiple linear regression and correlation analysis were performed using the SPSS 24 program (Armonk: IBM Corp.; 2016).

[2] = tested on: third-instar larvae of insecticide-susceptible Culex pipiens pallens; test: contact mortality bioassay, 24 h exposure; format: in vivo; conditions: for LC50: Culex pipiens, 24 h, read-out: LC50 (mg/L) (95% CI)
Experimental: as §1, §2, §3

[3] = molecular target: acetylcholinesterase (AChE) from third-instar Ae. aegypti larvae (Aedes aegypti, UniProt A4GND7); test: acetylcholinesterase inhibition assay; format: biochemical; conditions: based on IC50 values
Experimental: The in vitro AChE inhibitory activity of the test compounds was assessed according to the method of Perumalsamy et al.[42]. Third-instar Ae. aegypti larvae were used in all experiments. Whole bodies of 50 larvae were homogenized in 1 mL of ice-cold 0.1 M phosphate buffer (pH 8.0) using a glass tissue homogenizer. After filtering through cheesecloth, the homogenate was centrifuged at 1,000 × g at 4 °C for 5 min. The supernatant was used directly as the enzyme source for AChE. The protein levels were determined using the Bradford Protein Assay Kit (Bio-Rad Laboratories, Hercules, CA, USA) using BSA as the standard. The reaction mixture consisted of 50 µL of the crude enzyme preparation (4.3–4.8 µg protein equivalents), 150 µL of 0.1 M phosphate buffer, 20 µL of 3 mM DTNB in phosphate buffer (pH 7.0), and 1 µL of various concentrations of each test compound in ethanol. The reaction mixture was incubated at 30 °C for 5 min, and 20 µL of 32 mM ATChI was then added to the mixture. After incubation for 30 min, the reaction was terminated by adding 20 µL of 5 mM eserine salicylate. Absorbance was recorded at 412 nm using a VersaMax microplate reader (Molecular Devices, Sunnyvale, CA, USA). […] The results are expressed as the means ± standard errors (SEs) of triplicate samples from three independent experiments.
as §3

[4] = tested on: midgut regions of third-instar Ae. aegypti larvae; test: histologic analysis by Carson's trichrome staining; format: in vivo, Aedes aegypti; conditions: honokiol 6.5 mg/L or magnolol 25 mg/L (LC50), 24 h
Experimental: At 24 h post-treatment, Ae. aegypti larvae untreated and treated with honokiol or magnolol were immediately fixed in Bouin’s fluid[75] at 4 °C for 24 h. Larvae were then dehydrated in an ethanol-tetrahydrofuran-xylene series and embedded in Paraplast X-tra (Sigma-Aldrich). The embedded preparations of the larvae were sectioned at a 5 μm thickness using a Microm HM 340E rotary microtome (Thermo Scientific, Walldorf, Germany). The sections were dried at 40 °C overnight, subsequently deparaffinized with CitriSolv (Fisher Scientific, Fair Lawn, NJ, USA), and rehydrated with a series of ethanol in phosphate-buffered saline (PBS) solutions[30]. The rehydrated sections were stained in Weigert’s iron hematoxylin for 30 s, followed by Carson’s trichrome staining procedure. This staining protocol stained the columnar and goblet cells of the midgut blue and red, respectively. These sections were then dehydrated, cleared in xylene, and mounted in EMS Permount (Electron Microscopy Sciences, Hatfield, PA, USA). Images were observed and captured using a DMIL LED microscope (Leica Microsystems, Wetzlar, Germany) equipped with a Leica MC 170 HD. Observations were taken of 15 larvae under the microscope.

AaV-type H^+-ATPase mRNA = test: real-time qRT-PCR of target gene expression; format: in vivo, Aedes aegypti; conditions: fold higher than the control group; anal gills; honokiol 6.5 mg/L or magnolol 25 mg/L, 24 h
Experimental: (§4) Real-time qRT-PCR with SYBR Green dye was performed to determine whether honokiol and magnolol treatment affected the expression levels of three target genes, AaAQP4, AaV-type H^+-ATPase and AeCS1, in Ae. aegypti. […] Total RNA was extracted from the anal gills (for AaAQP4 and AaV-type H^+-ATPase) and midgut (for AeCS1) of 50 larvae using an RNeasy Mini Kit (Qiagen, Valencia, CA, USA) according to the manufacturer’s instructions. Residual genomic DNA was removed using RQ1 RNase-Free DNase (Promega, Fitchburg, WI, USA), and 1 μg of total RNA from each sample was used for complementary DNA (cDNA) synthesis with an oligo(dT) primer (Invitrogen, Grand Island, NY, USA) according to the protocol of the SuperScript III Reverse Transcriptase Kit. Real-time qRT-PCR was performed in 96-well plates using the StepOne Plus Real-Time PCR System (Applied Biosystems, Foster, CA, USA). Each reaction mixture consisted of 10 μL of the SYBR Green PCR Master Mix Kit (Applied Biosystems, Warrington, Cheshire, UK), 2 μL of the forward and reverse primers (10 pmol each), 1 μL of cDNA (25 ng) and diethylpyrocarbonate-treated water for a final volume of 20 μL. The oligonucleotide PCR primer pairs are listed in Table 9 and were purchased from Cosmo Genetech (Seoul). The cycling program included an initial hold at 95 °C for 5 min, followed by 35 cycles at 95 °C for 30 s, at 58 °C for 30 s, at 72 °C for 1 min, and an extension at 72 °C for 5 min using an Applied Bioscience Thermal Cycler. The mRNA expression levels of the target genes were normalized to the mRNA expression level of the housekeeping gene Aarps7 and analyzed by the 2^−ΔΔCT method using the Applied Biosystems StepOne Software v2.1 and DataAssist Software. The results are expressed as the means ± SEs of duplicate samples from three independent experiments.

AaAQP4 mRNA = test: real-time qRT-PCR of target gene expression; format: in vivo, Aedes aegypti; conditions: fold higher than the control group; anal gills; honokiol 6.5 mg/L or magnolol 25 mg/L, 24 h
Experimental: as §4

AeCS1 mRNA = test: real-time qRT-PCR of target gene expression; format: in vivo, Aedes aegypti; conditions: compared to control larvae; midgut; honokiol 6.5 mg/L or magnolol 25 mg/L, 24 h
Experimental: as §4

[5] = Table 7, structure-activity series, 24 h exposure
[6] = Table 3, 24 h exposure, listed as Pure honokiol
[7] = Table 6, structure-activity series, 24 h exposure
[8] = Table 2, KS-CP strain, 24 h exposure, listed as Pure honokiol

acetylcholinesterase (AChE) from third-instar Ae. aegypti larvae, sequence (A4GND7 37-679): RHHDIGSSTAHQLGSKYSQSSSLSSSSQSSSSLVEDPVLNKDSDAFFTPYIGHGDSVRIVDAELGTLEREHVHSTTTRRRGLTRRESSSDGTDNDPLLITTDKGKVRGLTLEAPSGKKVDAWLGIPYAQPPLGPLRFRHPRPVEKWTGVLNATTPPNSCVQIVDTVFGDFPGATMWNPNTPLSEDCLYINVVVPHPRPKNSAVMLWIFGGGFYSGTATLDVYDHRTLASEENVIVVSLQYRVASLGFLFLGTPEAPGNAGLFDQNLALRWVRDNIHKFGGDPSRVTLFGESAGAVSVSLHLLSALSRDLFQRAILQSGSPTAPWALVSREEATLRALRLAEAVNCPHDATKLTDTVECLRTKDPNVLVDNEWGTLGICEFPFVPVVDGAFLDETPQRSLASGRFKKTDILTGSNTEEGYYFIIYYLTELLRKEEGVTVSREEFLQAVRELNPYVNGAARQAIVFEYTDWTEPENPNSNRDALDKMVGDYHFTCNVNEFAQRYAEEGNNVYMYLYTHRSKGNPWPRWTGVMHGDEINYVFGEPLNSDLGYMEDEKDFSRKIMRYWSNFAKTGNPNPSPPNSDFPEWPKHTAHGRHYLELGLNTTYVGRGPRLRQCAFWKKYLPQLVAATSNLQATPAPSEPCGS

| SMILES | LC50 ([1]; Table 3, 24 h exposure) | LC50 [1, 5] | LC90 (mg/L) (95% CI) ([1]; Table 3, 24 h exposure, listed as Natural honokiol) | LC50 (mg/L) (95% CI) [1, 6] | LC90 (mg/L) (95% CI) [1, 6] | times less toxic than temephos ([1]; from 24 h LC50 values) | LC50 ([2]; Table 2, KS-CP strain, 24 h exposure) | LC50 [2, 7] | times more toxic than the structural isomer magnolol ([2]; Cx. pipiens pallens and Ae. aegypti larvae) | LC90 (mg/L) (95% CI) ([2]; Table 2, KS-CP strain, 24 h exposure, listed as Natural honokiol) | LC50 (mg/L) (95% CI) [2, 8] | LC90 (mg/L) (95% CI) [2, 8] | LC90 (mg/L) (95% CI) [2, 7] | times less toxic than temephos ([2]; from 24 h LC50 values) | AChE inhibitory activity (in words) [3] | histology of midgut region (Carson's staining) [4] | AaV-type H^+-ATPase mRNA expression levels (AaV-type H^+-ATPase mRNA) | AaAQP4 mRNA expression levels (AaAQP4 mRNA) | AeCS1 mRNA levels (AeCS1 mRNA) | LC90 (mg/L) (95% CI) [1, 5] |
| --- | --- | --- | --- | --- | --- | --- | --- | --- | --- | --- | --- | --- | --- | --- | --- | --- | --- | --- | --- | --- |
| C=CCc1ccc(O)c(-c2ccc(O)c(CC=C)c2)c1 [Honokiol, 2-(4-hydroxy-3-prop-2-enyl-phenyl)-4-prop-2-enyl-phenol] | 6.51 mg/L (≈ 24.4 µM) | 6.51 mg/L (≈ 24.4 µM) | 22.59 (17.70–34.15) mg/L | 6.48 (5.11–7.90) mg/L | 23.84 (18.41–37.36) mg/L | 521 times | 6.32 mg/L (≈ 23.7 µM) | 6.32 mg/L (≈ 23.7 µM) | approximately 4 times | 18.78 (15.30–25.99) mg/L | 6.38 (5.01–7.78) mg/L | 19.30 (15.64–27.01) mg/L | 18.78 (15.30–25.99) mg/L | 390 times | moderately | indistinct damaged midgut epithelial layers | approximately 16 fold | approximately 18 fold | 82% |  |
| C=CCc1ccc(O)c(-c2cc(CC=C)ccc2O)c1 [Magnolol, magnolol] |  | 25.7 mg/L (≈ 96.5 µM) |  |  |  |  |  | 26 mg/L (≈ 97.6 µM) |  |  |  |  | 80.42 (63.28–117.4) mg/L |  | strongly | indistinct midgut epithelial layers and PMs | ~14 fold | did not affect | up to 503% | 83.14 (64.68–124.4) mg/L |
